{"source": "patent US20160361250A1", "about": "“ACTIVE INGREDIENTS STIMULATING TYPE 2 AND/OR TYPE 3 HUMAN BETA-DEFENSINS AND COSMETIC OR PHARMACEUTICAL COMPOSITIONS CONTAINING SUCH ACTIVE INGREDIENTS” (BASF Beauty Care Solutions France S.A.S., priority 2002, published 2016)", "key": {"hBD2 [1]": {"system": "hBD2", "experiment": "Quantitative RT-PCR of hBD2 expression, 2nd step (dose-effect)", "type": "cell-based, human", "details": "16 h, untreated control = 100%", "description": "(§1) The actives are then tested on 5 concentrations (from 0.001% to max viability) in quadruplicate on normal human keratinocytes as a monolayer on 96-well culture plates, in a specific medium enriched with calcium and free of serum (CaCl2 1.7 mM) (same conditions as in example 1).\n(§2) After 16 h, the supernatants are collected and cells are dry frozen at −80° C. after rinsing in PBS.\n(§3) Total RNA are extracted using a 96-well extraction kit on silica columns and assayed using a 96-well spectrophotometer at 260 and 280 nm. RNA are diluted to 5 ng/μL.\n(§4) Quantitative RT-PCR in 96 wells on actin, hBD2 and hBD3 is initially carried out on 50 ng of RNA, using a one-step kit containing Sybrgreen, in a fluorescence thermocycler with the same primers as previously (0.5 μM). The amplification program is as follows: 50° C., 30 min; 94° C., 15 min; (94° C., 15 s; 60° C., 30 s; 72° C., 30 s)×50 cycles; 90° C., 1 min; 30° C., 1 min; 50° C. to 95° C. (10 s every ° C.); 14° C., infinite.\n(§5) A study of the fusion graphs makes it possible to verify the specificity of amplified products. The fluorescence graph as a function of the number of cycles gives the C(T) value corresponding to the number of cycles needed to obtain initiation of the fluorescence signal. The more an mRNA is expressed, the lower the C(T) value. Calculation of Sgene=(½)^C(T) for each RNA takes into consideration the exponential increase in the number of copies during amplification. The Sgene hBD2/Sgene actin and Sgene hBD3/Sgene actin ratios can be compared with those of the untreated control to give the percentage stimulation produced.\n(§6) Quantitative RT-PCR makes it possible to obtain a basal value for the defensin expression for untreated controls. The results are therefore expressed as a percentage of the control. IL8, IL1 and MIP3 cytokine levels are given as pg/mL/RNA concentration (in ng/μL).\n(§7) In the same way as in example 2, retinoic acid and retinol were tested for their capacity to stimulate hBD2 and/or hBD3."}, "human volunteers": {"system": "human volunteers", "details": "in vivo"}, "hBD3 [2]": {"system": "hBD3", "experiment": "Quantitative RT-PCR of hBD3 expression, 2nd step (dose-effect)", "type": "cell-based, human", "details": "16 h, untreated control = 100%", "description": "as §1, §2, §3, §4, §5, §6, §7"}, "animals": {"system": "animals", "details": "in vivo"}, "hBD2 [3]": {"system": "hBD2", "experiment": "Qualitative RT-PCR of hBD2 expression, 1st step of the screening method", "type": "cell-based", "details": "10 μg/mL; normal human keratinocytes, 16 h", "description": "(§8) A 1% concentration of the actives is tested on normal human keratinocytes, as a monolayer, on 96-well culture plates, in a specific medium enriched with calcium and free of serum (final concentration 1.7 mM).\n(§9) At 80% confluence, cells are contacted with the actives (1 active per well) for 16 h. An untreated control and 2 positive controls (TNFα 100 ng/mL for hBD2 and IFNγ 100 ng/mL for hBD3) are set up in parallel on the same culture plate.\nas §2\n(§10) Total RNA are extracted using a 96-well extraction kit on silica columns and assayed using a 96-well spectrophotometer at 260 and 280 nm. RNA are diluted to 5 ng/mL.\n(§11) Qualitative one-step RT-PCR is performed on 50 ng of initial RNA in 96 wells, on actin, hBD2 and hBD3. The primers are used at a concentration of 0.5 μM and arc taken from the literature:—hBD2: sense: 5′-[…]-3′; hBD2 antisense 5′-[…]-3′ (Harder J. et al., A peptide antibiotic from human skin. Nature 1997; 387 : 861); hBD3 sense: 5′-[…]-3′; hBD3 antisense: 5′-[…]-3′; actin sense: 5′-[…]-3′; actin antisense: 5′-[…]-3′ (Harder J. et al., Isolation and characterization of human β-defensin-3, a novel human inducible peptide antibiotic. J Biol Chem 2001, 276 : 5707-5713).\n(§12) Samples are placed in a thermocycler and follow a common amplification program: 50° C., 30 min; 94° C., 2 min, (94° C., 30 s; 60° C., 30 s; 68° C., 30 s), 32 cycles for the defensins and 30 cycles for actin; 72° C., 10 min; 14° C., infinite.\n(§13) After amplification, the products are mixed at a rate of 3 μL of actin amplification products+6 μL of hBD2 amplification products+6 μL of hBD3 amplification products. 5 μL of a mixture of charge buffer and water (⅔) are added and the final 20 μL are deposited on 2% premoulded agarose gel. The samples migrate in 30 minutes and the bands are visualised under UV in a dark room then digitally photographed.\n(§14) Photos of the gels are analysed by image processing software which quantifies the intensity of the bands. As the basal level of defensin expression (untreated control) is not detectable, the intensity ratios of the hBD2/actin and hBD3/actin bands can be compared, for example with those obtained for the positive control (treated with TNFα for hBD2 and IFNγ for hBD3) and indicate any stimulation of the expression of the β-defensin in question\n(§15) Since the basal level of defensin expression is generally not detectable, stimulation of hBD2 and hBD3 is expressed as a percentage of the positive controls (TNFα for hBD2 and IFNγ for hBD3). IL8 and MIP3α levels are given as pg/mL/RNA concentration (in ng/μL)."}, "hBD3 [4]": {"system": "hBD3", "experiment": "Qualitative RT-PCR of hBD3 expression, 1st step of the screening method", "type": "cell-based", "details": "10 μg/mL; normal human keratinocytes, 16 h", "description": "as §9, §2, §10, §11, §12, §13, §14, §15"}, "IL1α": {"system": "IL1α", "experiment": "ELISA of IL1α in supernatants, 2nd step", "type": "cell-based, human", "details": "supernatant, 16 h", "description": "(§16) The supernatants of the actives, whose capacity to induce defensins has been confirmed, are tested using an ELISA kit in order to assay MIP3α, IL8 and IL1α levels. These assays are performed on the same supernatant (200 μL) by carrying out a series dilution (by 1.5 to assay MIP3α and IL8, then by 2 to assay IL1). The levels are then referred to the RNA concentration assayed in each well in order to compare results with each other.\nas §6"}, "IL8": {"system": "IL8", "experiment": "ELISA of IL8 in supernatants, 2nd step", "type": "cell-based, human", "details": "supernatant, 16 h", "description": "as §16, §6"}, "MIP3α": {"system": "MIP3α", "experiment": "ELISA of MIP3α in supernatants, 2nd step", "type": "cell-based, human", "details": "supernatant, 16 h", "description": "as §16, §6"}, "hBD2 and/or hBD3 [5]": {"system": "hBD2 and/or hBD3", "experiment": "1st step of the screening method, overall outcome (defensin RT-PCR plus MIP3α/IL8 ELISA)", "type": "cell-based, human", "details": "first step", "description": "as §8, §9, §2, §10\nQualitative one-step RT-PCR is performed on 50 ng of initial RNA in 96 wells, on actin, hBD2 and hBD3. The primers are used at a concentration of 0.5 μM and arc taken from the literature:—hBD2: sense: 5′-[…]-3′; hBD2 antisense 5′-[…]-3′ (Harder J. et al., A peptide antibiotic from human skin. Nature 1997; 387 : 861); hBD3 sense: 5′-[…]-3′; hBD3 antisense: 5′-[…]-3′; actin sense: 5′-[…]-3′; actin antisense: 5′-[…]-3′ (Harder J. et al., Isolation and characterization of human β-defensin-3, a novel human inducible peptide antibiotic. J Biol Chem 2001, 276 : 5707-5713). […]\nPhotos of the gels are analysed by image processing software which quantifies the intensity of the bands. […]"}, "hBD2 and/or hBD3 [6]": {"system": "hBD2 and/or hBD3", "experiment": "2nd step of the screening method, overall outcome (quantitative RT-PCR plus MIP3α/IL8/IL1α ELISA)", "type": "cell-based, human", "details": "3.125, 6.25, 12.5 and 25 μg/mL", "description": "The actives which best satisfied the criteria for the first step undergo a dose-effect analysis.\nas §1, §2, §3, §4, §5\nThe supernatants of the actives, whose capacity to induce defensins has been confirmed, are tested using an ELISA kit in order to assay MIP3α, IL8 and IL1α levels. These assays are performed on the same supernatant (200 μL) by carrying out a series dilution (by 1.5 to assay MIP3α and IL8, then by 2 to assay IL1). […]"}}}
{"smiles": "CC1=C(/C=C/C(C)=C/C=C/C(C)=C/C(=O)O)C(C)(C)CCC1", "note": "[Retinoic acid]", "values": [{"measurement": "hBD2 expression, percentage of the control", "setting": "hBD2 [1]; conc. 0.005%", "result": 26, "unit": "%"}, {"measurement": "irritation / allergy, irritant or sensitizing potential (in words)", "setting": "human volunteers", "result": "not inducing any inflammatory, irritation or intolerance reaction"}, {"measurement": "hBD3 expression, percentage of the control", "setting": "hBD3 [2]; conc. 0.005%", "result": 161, "unit": "%"}, {"measurement": "irritation / allergy, primary skin irritation (in words)", "setting": "animals", "result": "not inducing any inflammatory, irritation or intolerance reaction"}]}
{"smiles": "CC[C@H](C)[C@H](N)C(=O)O", "note": "[L-Isoleucine]", "values": [{"measurement": "HBD2 expression, percentage of the positive control (TNFα)", "setting": "hBD2 [3]", "result": 0, "unit": "%"}, {"measurement": "HBD3 expression, percentage of the positive control (IFNγ)", "setting": "hBD3 [4]", "result": 0, "unit": "%"}, {"measurement": "hBD2 expression, percentage of the control", "setting": "hBD2 [1]; conc. 3.125 μg/mL", "result": 110, "unit": "%"}, {"measurement": "hBD2 expression, percentage of the control", "setting": "hBD2 [1]; conc. 6.25 μg/mL", "result": 107, "unit": "%"}, {"measurement": "hBD2 expression, percentage of the control", "setting": "hBD2 [1]; conc. 12.5 μg/mL", "result": 95, "unit": "%"}, {"measurement": "hBD2 expression, percentage of the control", "setting": "hBD2 [1]; conc. 25 μg/mL", "result": 110, "unit": "%"}, {"measurement": "IL1α level", "setting": "IL1α; conc. 3.125 μg/mL", "result": "21 pg/mL/RNA concentration (in ng/μL)"}, {"measurement": "IL1α level", "setting": "IL1α; conc. 6.25 μg/mL", "result": "22.3 pg/mL/RNA concentration (in ng/μL)"}, {"measurement": "IL1α level", "setting": "IL1α; conc. 12.5 μg/mL", "result": "25.3 pg/mL/RNA concentration (in ng/μL)"}, {"measurement": "IL1α level", "setting": "IL1α; conc. 25 μg/mL", "result": "22.8 pg/mL/RNA concentration (in ng/μL)"}, {"measurement": "IL8 level", "setting": "IL8; conc. 3.125 μg/mL", "result": "36.9 pg/mL/RNA concentration (in ng/μL)"}, {"measurement": "IL8 level", "setting": "IL8; conc. 6.25 μg/mL", "result": "33.6 pg/mL/RNA concentration (in ng/μL)"}, {"measurement": "IL8 level", "setting": "IL8; conc. 12.5 μg/mL", "result": "42.2 pg/mL/RNA concentration (in ng/μL)"}, {"measurement": "IL8 level", "setting": "IL8; conc. 25 μg/mL", "result": "35.1 pg/mL/RNA concentration (in ng/μL)"}, {"measurement": "MIP3α level", "setting": "MIP3α; conc. 3.125 μg/mL", "result": "5.2 pg/mL/RNA concentration (in ng/μL)"}, {"measurement": "MIP3α level", "setting": "MIP3α; conc. 6.25 μg/mL", "result": "4.9 pg/mL/RNA concentration (in ng/μL)"}, {"measurement": "MIP3α level", "setting": "MIP3α; conc. 12.5 μg/mL", "result": "5.9 pg/mL/RNA concentration (in ng/μL)"}, {"measurement": "MIP3α level", "setting": "MIP3α; conc. 25 μg/mL", "result": "4.5 pg/mL/RNA concentration (in ng/μL)"}, {"measurement": "stimulation of human defensins 2 and 3 by qualitative RT-PCR (in words)", "setting": "hBD2 and/or hBD3 [5]", "result": "no significant stimulation of human defensins 2 and 3"}, {"measurement": "hBD3 expression, percentage of the control", "setting": "hBD3 [2]; conc. 3.125 μg/mL", "result": 89, "unit": "%"}, {"measurement": "hBD3 expression, percentage of the control", "setting": "hBD3 [2]; conc. 6.25 μg/mL", "result": 94, "unit": "%"}, {"measurement": "hBD3 expression, percentage of the control", "setting": "hBD3 [2]; conc. 12.5 μg/mL", "result": 101, "unit": "%"}, {"measurement": "hBD3 expression, percentage of the control", "setting": "hBD3 [2]; conc. 25 μg/mL", "result": 106, "unit": "%"}, {"measurement": "induction of hBD2 and hBD3 expression in normal human keratinocytes (in words)", "setting": "hBD2 and/or hBD3 [6]", "result": "has not been found capable of inducing hBD2 and hBD3 expression"}]}
